Values joined by “and” are separate entries in the source; they are usually repeats but may differ in a detail not shown here. Equal entries are not always repeated. Where two headings read alike, the source gives them in different places.
Experiment: Rat PK study #2 (Compound A PO 5 mg/kg, DMSO/PEG-400/water)
Assay type: in vivo, SD rats
Protocol: For the second rat pharmacokinetic study, the pharmacokinetics of Compound A were assessed in male SD rats. Compound A was prepared in a formulation of 5% DMSO, 40% PEG-400, and 55% Milli-Q water (see formulation in Table 2D) and delivered to animals orally (PO) at a dose of 5 mg/kg. Animals (n=3) were then monitored over a 24-hour period.
Blood samples (~0.2 mL) were collected according to a schedule (0.083, 0.25, 0.5, 1, 2, 4, 8, and 24 h following the initial dosing) by jugular vein by cannulation and EDTA-K2 was used as anticoagulant. Within 30 minutes of collection, the samples were centrifuged at approximately 4000 times g-force for 5 minutes at 4° C. to obtain blood plasma. The plasma samples were immediately divided into two aliquots (~75 μL each), transferred to a cryogenic vial, and stored in a freezer at −75±15° C. prior to analysis.
The concentration of Compound A in plasma samples was determined by liquid chromatography-mass spectrometry (LC-MS/MS) using a Shimadzu HPLC (DGU-405; LC-30AD XS CN; SIL-40AC XSCN; Plate Changer CN; CTO-40C CN; and CBM-40 CN) and an AB API 7500+LC/MS/MS instrument. Samples were analyzed on a Raptor Biphenyl 2.7 μm (50×2.1 mm) column. Solution A in the mobile phase was 95% water (0.1% formic acid) and solution B was 95% acetonitrile in water (0.1% formic acid), injection volume was 15 μL, and flow rate was 0.6 mL/min.
To prepare samples for analysis, serial concentrations were prepared by diluting the stock solution of analyte with a 50% acetonitrile in water solution. 5 μL working solutions (5, 10, 20, 50, 100, 500, 1000, 5000, and 10000 ng/ml) were added to 50 μL of the blank SD rat plasma to achieve calibration standards of ~0.5 to 1000 ng/ml (0.5, 1, 2, 5, 10, 50, 100, 500, and 1000 ng/ml) in a total volume of 55 μL. Five quality control samples at 1 ng/ml, 2 ng/ml, 5 ng/ml 50 ng/ml, and 800 ng/ml for plasma were prepared independently of those used for the calibration curves. These QC samples were prepared on the day of analysis in the same way as calibration standards.
55 μL of standards, 55 μL of QC samples and 55 μL of unknown samples (50 μL of unknown rat plasma with 5 μL of blank solution) were added to 200 μL of acetonitrile containing IS mixture (verapamil) for precipitating protein respectively. The samples were then vortexed for 30 s. After centrifugation at 4° C., 3900 rpm for 15 min, the supernatant was diluted 3 times with water. […] of diluted supernatant was injected into the LC/MS/MS system for quantitative analysis.

[1] = SD rats, PO 5 mg/kg, DMSO/PEG-400/Milli-Q water formulation, individual animals, 5 mg/kg
[2] = SD rats, PO 5 mg/kg, DMSO/PEG-400/Milli-Q water formulation, mean of 3 animals
[3] = male, Sprague-Dawley, rat, plasma, po, 5 mg/kg, SD rats, PO 5 mg/kg, DMSO/PEG-400/Milli-Q water formulation, mean of 3 animals

With `Cn1cc(-c2ccccc2)c(-c2cn(C)c(=O)c3[nH]c(-c4cnn(C(F)(F)F)c4)cc23)cc1=O` [Compound A, 6-methyl-4-(1-methyl-2-oxo-5-phenyl-1,2-dihydropyridin-4-yl)-2-(1-(trifluoromethyl)-1H-pyrazol-4-yl)-1,6-dihydro-7H-pyrrolo[2,3-c]pyridin-7-one] the Clinical observations (5 mg/kg PO, 24 h, one animal soft feces at 8 h) was “no abnormalities recorded”, the “Plasma Concentration” value (SD rats, PO 5 mg/kg, DMSO/PEG-400/Milli-Q water formulation, 0.083 h, individual animals, 5 mg/kg) was 9.76 ng/mL and 0.719 ng/mL and 2.15 ng/mL and the “Plasma Concentration” value (SD rats, PO 5 mg/kg, DMSO/PEG-400/Milli-Q water formulation, 0.25 h, individual animals, 5 mg/kg) was 7.42 ng/mL and 5.44 ng/mL and 12.5 ng/mL. For the same compound, the “Plasma Concentration” value (SD rats, PO 5 mg/kg, DMSO/PEG-400/Milli-Q water formulation, 0.5 h, individual animals, 5 mg/kg) was 31.9 ng/mL and 15.4 ng/mL and 32.7 ng/mL, the “Plasma Concentration” value (SD rats, PO 5 mg/kg, DMSO/PEG-400/Milli-Q water formulation, 1 h, individual animals, 5 mg/kg) was 62.6 ng/mL and 38.4 ng/mL and 101 ng/mL and the “Plasma Concentration” value (SD rats, PO 5 mg/kg, DMSO/PEG-400/Milli-Q water formulation, 2 h, individual animals, 5 mg/kg) was 170 ng/mL and 64.8 ng/mL and 272 ng/mL. For the same compound, the “Plasma Concentration” value (SD rats, PO 5 mg/kg, DMSO/PEG-400/Milli-Q water formulation, 4 h, individual animals, 5 mg/kg) was 472 ng/mL and 218 ng/mL and 496 ng/mL, the “Plasma Concentration” value (SD rats, PO 5 mg/kg, DMSO/PEG-400/Milli-Q water formulation, 8 h, individual animals, 5 mg/kg) was 532 ng/mL and 181 ng/mL and 302 ng/mL and the “Plasma Concentration” value (SD rats, PO 5 mg/kg, DMSO/PEG-400/Milli-Q water formulation, 24 h, individual animals, 5 mg/kg) was 2.11 ng/mL and 5.81 ng/mL and 6.35 ng/mL. The AUClast [1] was 7070 ng·h/mL and 2643 ng·h/mL and 5058 ng·h/mL, the AUClast/D [1] was 1414 mg·h/mL and 529 mg·h/mL and 1012 mg·h/mL and the Cmax [1] was 532 ng/mL and 218 ng/mL and 496 ng/mL. For the same compound, the F [1] was 81.5% and 30.5% and 58.3%, the AUClast/D [2] was 985 mg·h/mL and the F [2] was 56.8%. The concentration at 1 h (male, SD, rat, plasma, po, 5 mg/kg, SD rats, PO 5 mg/kg, DMSO/PEG-400/Milli-Q water formulation, 1 h, mean of 3 animals) was 67 ng/mL, the concentration at 2 h (male, SD, rat, plasma, po, 5 mg/kg, SD rats, PO 5 mg/kg, DMSO/PEG-400/Milli-Q water formulation, 2 h, mean of 3 animals) was 169 ng/mL and the concentration at 4 h (male, SD, rat, plasma, po, 5 mg/kg, SD rats, PO 5 mg/kg, DMSO/PEG-400/Milli-Q water formulation, 4 h, mean of 3 animals) was 395 ng/mL. For the same compound, the concentration at 8 h (male, SD, rat, plasma, po, 5 mg/kg, SD rats, PO 5 mg/kg, DMSO/PEG-400/Milli-Q water formulation, 8 h, mean of 3 animals) was 338 ng/mL, the concentration at 0.083 h (male, Sprague-Dawley, rat, plasma, po, 5 mg/kg, SD rats, PO 5 mg/kg, DMSO/PEG-400/Milli-Q water formulation, 0.083 h, mean of 3 animals) was 4.21 ng/mL and the concentration at 0.25 h (male, Sprague-Dawley, rat, plasma, po, 5 mg/kg, SD rats, PO 5 mg/kg, DMSO/PEG-400/Milli-Q water formulation, 0.25 h, mean of 3 animals) was 8.5 ng/mL. For the same compound, the concentration at 0.5 h (male, Sprague-Dawley, rat, plasma, po, 5 mg/kg, SD rats, PO 5 mg/kg, DMSO/PEG-400/Milli-Q water formulation, 0.5 h, mean of 3 animals) was 26.7 ng/mL, the concentration at 24 h (male, Sprague-Dawley, rat, plasma, po, 5 mg/kg, SD rats, PO 5 mg/kg, DMSO/PEG-400/Milli-Q water formulation, 24 h, mean of 3 animals) was 4.75 ng/mL and the Tmax (male, Sprague-Dawley, rat, plasma, po, 5 mg/kg, SD rats, PO 5 mg/kg, DMSO/PEG-400/Milli-Q water formulation, individual animals) was 8 h. It also gave an AUC(0-t) [3] of 4920 ng·h/mL, a Tmax [3] of 5.33 h and a Cmax (male, Sprague-Dawley, rat, plasma, po, 5 mg/kg, SD rats, PO 5 mg/kg, DMSO/PEG-400/Milli-Q water formulation, mean of 3 animals, read-out: Cmax) of 415 ng/mL.
